Experimental data taken from paper PMC12670405, “Second-Generation AURKA-Targeting PROTACs: Structural Optimization toward in Vivo Degradation in Neuroblastoma” (Journal of Medicinal Chemistry, 2025).

Molecular target: T1, AURKA (Homo sapiens, UniProt O14965)
T1 sequence (O14965 1-403): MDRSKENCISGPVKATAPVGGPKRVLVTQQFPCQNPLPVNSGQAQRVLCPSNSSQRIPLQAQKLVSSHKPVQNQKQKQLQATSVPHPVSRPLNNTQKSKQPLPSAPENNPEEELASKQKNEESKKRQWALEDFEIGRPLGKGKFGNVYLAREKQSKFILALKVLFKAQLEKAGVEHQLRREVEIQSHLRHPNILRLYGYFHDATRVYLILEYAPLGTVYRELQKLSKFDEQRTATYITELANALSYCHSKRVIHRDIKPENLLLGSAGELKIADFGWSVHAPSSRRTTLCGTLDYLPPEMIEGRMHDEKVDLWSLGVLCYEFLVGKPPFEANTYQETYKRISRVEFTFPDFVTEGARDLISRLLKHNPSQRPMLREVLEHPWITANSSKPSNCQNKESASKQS
Test: LC-MS/MS proteome profiling
Type: cell-based
Parameters: endogenous in cells; host or cells: IMR-32; key to Significant (3h SK5527vs3h DMSO) FDR0 05 / Significant (24h SK5527vs24h DMSO) FDR0 05: +: Statistical significance for differential regulation was set to a false discovery rate (FDR) of < 0.05 and |log2FC| = 2
Experimental: IMR-32 cells were seeded in T-25 flasks at a density of 1.7 million cells/flask and treated the next day with DMSO (negative control), SK5527 (500 nM) or MK-5108 (500 nM) for 3 or 24 h (data for MK-5108 not discussed in this manuscript). Cell pellets were harvested at the respective time points, lysed, and the concentration of the obtained protein lysates measured as previously described. Details on further sample preparation, LC–MS/MS, and data analysis can be found in the Supporting Information. The LC–MS/MS proteomics data have been deposited to the ProteomeXchange Consortium via the PRIDE partner repository with the data set identifier PXD061539.
Supplementary Methods 1 – LC-MS/MS proteomics
From each sample, 100 µg of protein was isolated, the volumes were equalized with water and SDS and TEAB were added to a final concentration of 5% and 50 mM, respectively. Proteins were reduced and alkylated by addition of 10 mM Tris(2-carboxyethyl)phosphine hydrochloride and 40 mM chloroacetamide and incubation for 30 minutes at 25°C in the dark. Phosphoric acid was added to a final concentration of 1.2%, and samples were subsequently diluted 7-fold with binding buffer containing 90% methanol in 100 mM TEAB, pH 7.55. The samples were loaded on the 96-well S-Trap™ plate (Protifi), placed on top of a deepwell plate, and centrifuged for 2 min at 1,500 x g at RT. After protein binding, the S-trap™ plate was washed three times by adding 200 µl binding buffer and centrifugation for 2 min at 1,500 x g at RT. A new deepwell receiver plate was placed below the 96-well S-Trap™ plate and 50 mM TEAB containing trypsin (1/100, w/w) was added for digestion overnight at 37°C.
Using centrifugation for 2 min at 1,500 x g, peptides were eluted in three steps, first with 80 µl 50 mM TEAB, then with 80 µl 0.2% formic acid (FA) in water and finally with 80 µl 0.2% FA in water/acetonitrile (ACN) (50/50, v/v). Eluted peptides were dried completely by vacuum centrifugation.
Peptides were re-dissolved in 20 µl loading solvent A (0.1% trifluoroacetic acid in water/acetonitrile (ACN) (99.5:0.5, v/v)) of which 2 µl of sample was injected for LC-MS/MS analysis on an Ultimate 3000 ProFlow nanoLC system in-line connected to a Orbitrap Exploris 240 mass spectrometer (Thermo) equipped with pneu-Nimbus dual ion source (Phoenix S&T). Trapping was performed at 20 μl/min for 2 min in loading solvent A on a PepMap™ Neo Trap column (Thermo scientific, 300 μm internal diameter (I.D.), 5 μm beads). The peptides were separated on a 250 mm Odyssey Ultimate, 1.7µm C18, 75 µm inner diameter (Ionopticks) kept at a constant temperature of 45°C. Peptides were eluted by a gradient reaching 26,4 % MS solvent B (0.1% FA in acetonitrile) after 80 min, 44% MS solvent B at 95 min, 56% MS solvent B at 100min followed by a 5-minutes wash at 56% MS solvent B and re-equilibration with MS solvent A (0.1% FA in water). The flow rate was set to 250 nl/min. The mass spectrometer was operated in data-independent mode, automatically switching between MS and MS/MS acquisition. Full-scan MS spectra ranging from 375-1500 m/z with a normalized target value of 300%, a maximum fill time of 25 ms and a resolution at of 60,000 were followed by 30 quadrupole isolations with a precursor isolation width of 10 m/z for HCD fragmentation at an NCE of 30% after filling the trap at a normalized target value of 2000% for maximum injection time of 45 ms. MS2 spectra were acquired at a resolution of 15,000 with a scan range of 200-1800 m/z in the Orbitrap analyser without multiplexing. The isolation intervals were set from 400 – 900 m/z with a width of 10 m/z using window placement optimization. The polydimethylcyclosiloxane background ion at 445.120028 Da was used for internal calibration (lock mass) and QCloud has been used to control instrument longitudinal performance during the project.
Analysis of the mass spectrometry data was performed in DiaNN (version 1.9). Precursor false discovery rate was […]
set at 1%. […]

Cc1cc(Nc2ccc(F)c(CC3(C(=O)N4CCC(F)(CN5CCN(c6ccc(N7CCC(=O)NC7=O)cn6)CC5)CC4)CCN(Cc4cccc(Cl)c4F)CC3)n2)n[nH]1 [SK5527]
Significant (3h SK5527vs3h DMSO) FDR0 05 (IMR-32, 3h): +
logFC (3h SK5527vs3h DMSO) (IMR-32, 3h): -3.27
Significant (24h SK5527vs24h DMSO) FDR0 05 (IMR-32, 24h): +
logFC (24h SK5527vs24h DMSO) (IMR-32, 24h): -3.1
logFC AURKA (SK5527 vs DMSO (3h)): -3.27
logFC AURKA (SK5527 vs DMSO (24h)): -3.1
